How the values were obtained:
S. aureus = experiment: Evaluation of rapid antimicrobial activity in presence of serum (S. aureus); format: cell-based; conditions: for log10 reduction, S. aureus / cfu/ml, S. aureus: Base #2; for log10 reduction, S. aureus / cfu/ml, S. aureus / Log10 reduction / log10 reduction, With zinc salts / cfu/ml, With zinc salts / log10 reduction, Without zinc salts / cfu/ml, Without zinc salts / log10 reduction / cfu/ml: serum; for log10 reduction, S. aureus / cfu/ml, S. aureus / Log10 reduction / CFU/mL / log10 reduction, With zinc salts / cfu/ml, With zinc salts / log10 reduction, Without zinc salts / cfu/ml, Without zinc salts / log10 reduction / cfu/ml: 15 seconds; for synergy of the combination, in words: Example 1, Table 1, Base #1; for Log10 reduction / CFU/mL: Table 1, BZK 0.12%, CHG 0.05%, TC 0.3%, ZP 0.5%, F/LO/LI/CI 0.3%; for Log10 reduction: Base #1 (zinc salts), versus Control (Base); for CFU/mL: agents in alcohol based zinc gel Base #1, bovine adult serum, control 3.4 × 10^7; for log10 reduction, With zinc salts / cfu/ml, With zinc salts / log10 reduction, Without zinc salts / cfu/ml, Without zinc salts: Table 2; for log10 reduction, With zinc salts / cfu/ml, With zinc salts: Base #1 with zinc salts; for cfu/ml, With zinc salts / cfu/ml: control gel 1.4 × 10^7; for log10 reduction, Without zinc salts / cfu/ml, Without zinc salts: Base #2 without zinc salts; for cfu/ml, Without zinc salts: control gel 4.1 × 10^7; for log10 reduction / cfu/ml: Table 3, groups in gel Base #2 (% w/w); for synergy in combination with farnesol, in words: Example 3, Table 3, rapid serum-based assay
Experimental: Evaluation of Rapid Antimicrobial Activity in Presence of Serum.
To determine the efficacy of the antimicrobial composition on the skin, which may be contaminated with blood or other proteinaceous fluids containing bacteria, the antimicrobial activity was evaluated in the presence of serum as follows. Briefly, 0.5 ml of 10^8 CFU of S. aureus/ml was added to 0.5 ml of bovine adult serum in a sterile culture tube and mixed. 0.5 ml of the test formulation was added to each tube and vortexed. After 15 seconds, it was further diluted 1:100 with drug inactivating media (LTSB) and 0.5 ml was plated on a TSA plate. The plates were incubated at 37° C. for 24 hours and the colony count per ml of culture was determined.

E. coli = experiment: Rapid antimicrobial activity assay in presence of serum (E. coli); format: cell-based
[1] = cited from earlier work
[2] = Example 6, Table 7, molar proportions
[3] = Table 6, Gel Base #1, ingredients % w/w, control base 3.4 × 10^7 cfu/ml
[4] = Table 7, ingredients in gram millimoles per 100 g Gel, control base 6.4 × 10^7 cfu/ml
[5] = Table 5, Base #2, 15 seconds, gel base 2.6 × 10^7
[6] = Table 4, BZK 0.12% w/w, BZT 0.18% w/w, all other EO/IC 0.5% w/w
[7] = Table 4, BZK 0.12% w/w, BZT 0.18% w/w, all other EO/IC 0.5% w/w, control 1.4 × 10^7
[8] = Table 4, Base #2, BZK 0.12% w/w, BZT 0.18% w/w, all other EO/IC 0.5% w/w, 15 seconds
[9] = Table 4, Base #2, BZK 0.12% w/w, BZT 0.18% w/w, all other EO/IC 0.5% w/w, 15 seconds, control 2.6 × 10^7

| Compound | log10 reduction, S. aureus (S. aureus; Table 5) [log10] | cfu/ml, S. aureus (S. aureus; Table 5, gel base 1.4 × 10^7) | log10 reduction in colony count from the control (S. aureus; [3]) [log10] | log10 reduction in colony count from the control (S. aureus; [4]) [log10] | log10 reduction, E. coli (E. coli; Table 5, Base #2, 15 seconds) [log10] | cfu/ml, E. coli (E. coli; [5]) | synergy of the combination, in words (S. aureus) | Log10 reduction (S. aureus) [log10] | CFU/mL (S. aureus) | also measured |
| --- | --- | --- | --- | --- | --- | --- | --- | --- | --- | --- |
| Polyhexamethylenebiguanide hydrochloride [PHMB] | 2.9 | 4.3 × 10^4 cfu/ml | 2.9 | 2.1 | 1.6 | 6.0 × 10^5 cfu/ml | – | – | – | effect of added biguanide on the combination of BZT and farnesol, in words (S. aureus; Example 5, Table 5 (S. aureus and E. coli)): appears to enhance the activity of the combination of BZT and farnesol; whether farnesol shows synergy with or enhances the antimicrobial agent, in words (S. aureus; Example 6, Table 6, % w/w): enhances the activity; whether farnesol shows synergy with or enhances the antimicrobial agent, in words (S. aureus; [2]): appears to enhance the activity of farnesol |
| C=CC(C)(O)CCC=C(C)C (stereo not shown) [LI, Linalool] | – | – | – | – | – | – | synergistic antimicrobial effects when combined with BZK | 1.3 | 1.5 × 10^6 CFU/mL | – |
| CC(C)=CCCC(C)=CCCC(C)=CCO [F, Farnesol] | 1.5 | 4.5 × 10^5 cfu/ml | 0.6 | 1.8 | 1.8 | 4.3 × 10^5 cfu/ml | synergistic antimicrobial effects when combined with BZK | 0.6 | 8.4 × 10^6 CFU/mL | log10 reduction, With zinc salts (S. aureus): 1.5 log10; cfu/ml, With zinc salts (S. aureus): 4.5 × 10^5 cfu/ml; log10 reduction, Without zinc salts (S. aureus): 1.7 log10; cfu/ml, Without zinc salts (S. aureus): 8.9 × 10^5 cfu/ml; log10 reduction (S. aureus): 1.5 log10; cfu/ml (S. aureus; listed as Farnesol (0.3%)): 4.6 × 10^5 cfu/ml; cfu/ml (S. aureus; listed as Farnesol (0.5%)): 4.5 × 10^5 cfu/ml; log10 reduction, S. aureus (S. aureus; [6]): 1.5 log10; cfu/ml, S. aureus (S. aureus; [7]): 4.5 × 10^5 cfu/ml; log10 reduction, E. coli (E. coli; [8]): 1.8 log10; cfu/ml, E. coli (E. coli; [9]): 4.3 × 10^5 cfu/ml |
| zinc glycerate | – | – | – | – | – | – | – | – | – | water solubility, in words [1]: moderately water soluble |
| CC(C)=CCCC(C)=CC=O [CI, Citral] | – | – | – | – | – | – | synergistic antimicrobial effects when combined with BZK | 1.3 | 1.5 × 10^6 CFU/mL | – |
| zinc pyrithione [ZP] | – | – | – | – | – | – | No such synergism was observed when farnesol was combined | 1.4 | 1.4 × 10^6 CFU/mL | – |
| CC(C)(C)CC(C)(C)c1ccc(OCCOCC[N+](C)(C)Cc2ccccc2)cc1 [BZT, benzethonium chloride] | 1.4 | 5.3 × 10^5 cfu/ml | 1.6 | 1.9 | 1.8 | 4.3 × 10^5 cfu/ml | – | – | – | synergy in combination with farnesol, in words (S. aureus): synergistic antimicrobial activity when used in combination with farnesol; log10 reduction, With zinc salts (S. aureus): 1.6 log10; cfu/ml, With zinc salts (S. aureus): 3.3 × 10^5 cfu/ml; log10 reduction, Without zinc salts (S. aureus): 1.7 log10; cfu/ml, Without zinc salts (S. aureus): 7.5 × 10^5 cfu/ml; cfu/ml (S. aureus; listed as BZT (0.06%)): 5.7 × 10^5 cfu/ml; cfu/ml (S. aureus; listed as BZT (0.12%)): 4.7 × 10^5 cfu/ml; cfu/ml (S. aureus; listed as BZT (0.18%)): 3.3 × 10^5 cfu/ml; log10 reduction (S. aureus; listed as BZT (0.06%)): 1.4 log10; log10 reduction (S. aureus; listed as BZT (0.12%)): 1.5 log10; log10 reduction (S. aureus; listed as BZT (0.18%)): 1.6 log10; log10 reduction, S. aureus (S. aureus; [6]): 1.4 log10; cfu/ml, S. aureus (S. aureus; [7]): 5.3 × 10^5 cfu/ml; log10 reduction, E. coli (E. coli; [8]): 1.8 log10; cfu/ml, E. coli (E. coli; [9]): 4.3 × 10^5 cfu/ml |
| benzalkonium chloride [BZK] | – | – | 1.8 | – | – | – | significant synergistic activity in combination with EOs and ICs | 1.8 | 5.4 × 10^5 CFU/mL | synergy in combination with farnesol, in words (S. aureus): synergistic antimicrobial activity when used in combination with farnesol; whether farnesol shows synergy with or enhances the antimicrobial agent, in words (S. aureus; Example 6, Table 6, % w/w): shows synergy; cfu/ml (S. aureus; listed as BZK (0.06%)): 1.8 × 10^6 cfu/ml; cfu/ml (S. aureus; listed as BZK (0.12%)): 5.4 × 10^5 cfu/ml; log10 reduction (S. aureus; listed as BZK (0.06%)): 0.9 log10; log10 reduction (S. aureus; listed as BZK (0.12%)): 1.4 log10; log10 reduction, S. aureus (S. aureus; [6]): 1.6 log10; cfu/ml, S. aureus (S. aureus; [7]): 3.3 × 10^5 cfu/ml; log10 reduction, E. coli (E. coli; [8]): 1.6 log10; cfu/ml, E. coli (E. coli; [9]): 5.8 × 10^5 cfu/ml |
| N=C(NCCCCCCNC(=N)NC(=N)Nc1ccc(Cl)cc1)NC(=N)Nc1ccc(Cl)cc1.O=C(O)[C@H](O)[C@@H](O)[C@H](O)[C@H](O)CO.O=C(O)[C@H](O)[C@@H](O)[C@H](O)[C@H](O)CO [CHG, chlorhexidine gluconate] | 1.3 | 6.6 × 10^5 cfu/ml | 1.7 | 1.9 | 1.7 | 4.8 × 10^5 cfu/ml | No such synergism was observed when farnesol was combined | 1.7 | 6.6 × 10^5 CFU/mL | – |
| Oc1cc(Cl)ccc1Oc1ccc(Cl)cc1Cl [TC, triclosan] | – | – | 1.3 | 1.3 | – | – | No such synergism was observed when farnesol was combined | 1.3 | 1.5 × 10^6 CFU/mL | whether farnesol shows synergy with or enhances the antimicrobial agent, in words (S. aureus; Example 6, Table 6, % w/w): does not show any synergy; whether farnesol shows synergy with or enhances the antimicrobial agent, in words (S. aureus; [2]): but not with triclosan |
| zinc picolinate | – | – | – | – | – | – | – | – | – | water solubility, in words [1]: moderately water soluble |
